Results taken from ChEMBL document CHEMBL3046520, “Synthesis of novel 2-phenyl-3-[2-(substituted amino) ethylamino] quinazolin-4(3H)-ones as a new class of H1-antihistaminic agents” (Med Chem Res, 2013).

Assays:
Mus musculus [1] = assay: Induction of sedation-hypnotic activity in Mus musculus Albino Swiss (mouse) assessed as reduction in locomotor activity at 5 mg/kg, po measured after 1 hr by actophotometer; format: organism-based; parameters: dose 5 mg/kg, route oral; scale not given: the % may be the effect or the level left; conditions: in vivo
Mus musculus [2] = assay: Induction of sedation-hypnotic activity in Mus musculus Albino Swiss (mouse) assessed as reduction in locomotor activity at 5 mg/kg, po measured after 0.5 hr by actophotometer; format: organism-based; parameters: dose 5 mg/kg, route oral; scale not given: the % may be the effect or the level left; conditions: in vivo
Mus musculus [3] = assay: Induction of sedation-hypnotic activity in Mus musculus Albino Swiss (mouse) assessed as reduction in locomotor activity at 5 mg/kg, po measured after 3 hr by actophotometer; format: organism-based; parameters: dose 5 mg/kg, route oral; scale not given: the % may be the effect or the level left; conditions: in vivo
Cavia porcellus [4] = assay: In vivo H1-antihistaminic activity in Cavia porcellus Dunkin-Hartley (guinea pig) assessed as time of onset of convulsion at 10 mg/kg, po; format: functional
Mus musculus [5] = assay: Induction of sedation-hypnotic activity in Mus musculus Albino Swiss (mouse) assessed as reduction in locomotor activity at 5 mg/kg, po measured after 2 hr by actophotometer; format: organism-based; parameters: dose 5 mg/kg, route oral; scale not given: the % may be the effect or the level left; conditions: in vivo
Cavia porcellus [6] = assay: In vivo H1-antihistaminic activity in conscious Cavia porcellus Dunkin-Hartley (guinea pig) assessed as protection against histamine-induced bronchospasm at 10 mg/kg, po; format: functional
Cavia porcellus [7] = assay: In vivo H1-antihistaminic activity in conscious Cavia porcellus Dunkin-Hartley (guinea pig) assessed as protection against histamine-induced bronchospasm at 25 mg/kg, ip; format: functional; conditions: route intraperitoneal
Cavia porcellus [8] = assay: In vivo H1-antihistaminic activity in Cavia porcellus Dunkin-Hartley (guinea pig) assessed as time of onset of convulsion at 25 mg/kg, ip; format: functional; conditions: route intraperitoneal

| SMILES | Activity (Mus musculus [1]) [%] | Activity (Mus musculus [2]) [%] | Activity (Mus musculus [3]) [%] | Time (Cavia porcellus [4]) [s] | Activity (Mus musculus [5]) [%] | Activity (Cavia porcellus [6]) [%] | Activity (Cavia porcellus [7]) [%] | Time (Cavia porcellus [8]) [s] |
| --- | --- | --- | --- | --- | --- | --- | --- | --- |
| O=c1c2ccccc2nc(-c2ccccc2)n1NCCNc1ccccc1 | 11.55 | 11.32 | 10.11 | 402 | 12.32 | 71.64 | – | – |
| O=c1c2ccccc2nc(-c2ccccc2)n1NCCNc1ccc(Cl)cc1 | 9.42 | 8.28 | 6.48 | 416 | 10.73 | 72.12 | – | – |
| O=c1c2ccccc2nc(-c2ccccc2)n1NCCN1CCNCC1 | 10.42 | 9.35 | 8.21 | 433 | 10.79 | 73.67 | – | – |
| O=c1c2ccccc2nc(-c2ccccc2)n1NCCNCc1ccccc1 | 11.52 | 10.42 | 8.9 | 366 | 12.31 | 68.85 | – | – |
| O=c1c2ccccc2nc(-c2ccccc2)n1NCCN1CCOCC1 | 9.32 | 8.43 | 7.32 | 428 | 10.41 | 73.36 | – | – |
| COc1ccc(NCCNn2c(-c3ccccc3)nc3ccccc3c2=O)cc1 | 10.43 | 9.03 | 8.53 | 398 | 10.94 | 71.35 | – | – |
| O=c1c2ccccc2nc(-c2ccccc2)n1NCCNc1nccs1 | 9.52 | 8.21 | 7.43 | 409 | 9.85 | 72.12 | – | – |
| Cc1ccccc1NCCNn1c(-c2ccccc2)nc2ccccc2c1=O | 9.88 | 9.42 | 7.13 | 375 | 10.38 | 69.6 | – | – |
| COc1cccc(NCCNn2c(-c3ccccc3)nc3ccccc3c2=O)c1 | 10.89 | 10.35 | 9.32 | 382 | 11.63 | 70.15 | – | – |
| O=c1c2ccccc2nc(-c2ccccc2)n1NCCNc1ccc([N+](=O)[O-])cc1 | 9.98 | 9.51 | 8.32 | 394 | 11.04 | 71.06 | – | – |
| CN(C)CCC(c1ccc(Cl)cc1)c1ccccn1.O=C(O)/C=C\C(=O)O (stereo unspecified) [CHLORPHENIRAMINE MALEATE] | 38.8 | 32.04 | 29.58 | – | 34.8 | – | 70.09 | 394 |
